Experimental findings from US20040059104A1, “Nucleotide mimics and their prodrugs” (priority 2002, published 2004) are described below.

The nature of one data set: in vitro. How it is done: Typically the total volume used for the experiment was 500 μl. The final concentrations of the reaction components were as follows:
The reacton mixtures were made up and incubated at 37° C. At appropriate times aliquots of 25 μl were removed and added to 65 μl ice-cold methanol. These solutions were our at −20° C. and typically overnight. After incubation samples were inutes at high speed in a microcentrifuge. The supernatant was nd the extract was dried under vacuum in a LabConco Centrivap Concentrator. The dried extracts were resuspended in dH2O and filtered to remove particulate before analysis on reverse phase HPLC.
The reverse phase HPLC columns used for the analysis were either a Phenomenex C18 Aqua column (2×100 mm) or the Phenomenex C18 Aqua column (3×150 mm) used with the appropriate guard column. The HPLC was run at 0.2 ml/min (for the 2×100 mm column) or at 0.5 ml/min (for the 3×150 mm column) with the following buffer system: 5 mM tetrabutylammonium acetate, 50 mM ammonium phosphate, and an acetonitrile gradient running from 5% up to as high as 60%. The amount of remaining parent compound at each time point was used to determine the half-life of the compound. […] Unmodified nucleoside triphosphates were used as positive controls.

For data set [1], the target named is T1, HIV Reverse Transcriptase (Type B, 66 kDa subunit) (Human immunodeficiency virus type 1 group M subtype B, UniProt P04585).
T1 construct: purified HIV Reverse Transcriptase (Type B, 66 kDa subunit)
Briefly: HIV Reverse Transcriptase inhibition assays (RNA-directed DNA polymerization, PicoGreen fluorescence). It is filed as biochemical. To be noted: Table 1; template (homopolymer or heteropolymer RNA) not stated; read-out: Ki, Inhibition of HIV Reverse Transcriptase by Nucleotide Mimics. How it is done: The assays employed to measure inhibition of HIV Reverse Transcriptase (HIV RT) catalyzed/RNA-directed DNA polymerization are described below. The effectiveness of the compounds of the present invention as inhibitors of HIV RT-catalyzed DNA polymerization was measured in the following assays.
This assay was used to measure the ability of the nucleotide mimics of the present invention to inhibit the enzymatic synthesis of complementary strand DNA from a DNA-primed template of homopolymeric RNA. This assay is a modification of a published procedure (Seville, et al., “Fluorometric Assay for DNA Polymerases and Reverse Transcriptase”, BioTechniques 1996, 21, 664-72).
The compounds were tested at various concentrations up to 500 μM final concentration. DNA polymerase activity was measured in a reaction buffer containing primed-RNA template and dTTP diluted to appropriate concentrations in assay buffer. Nucleotide mimics of the present invention were diluted in buffer and pipetted into the wells of a 96-well plate. The reaction was initiated by addition of enzyme and allowed to proceed at 37° C. for 10 minutes. The reaction was quenched by addition of 5 μL 0.2 M EDTA, pH 8.0.
200 μL of diluted PicoGreen dsDNA Quantitation Reagent (Molecular Probes, Inc, Eugene, Oreg.) was added to each well of a 96-well plate and incubated at room temperature for 5 minutes. Plate wells were read on a microplate fluorometer (Molecular Devices Corp., Sunnyvale, Calif.). The wells were excited at 480 nm and the fluorescence emission intensity (RFU) was measured at 520 nm. The percentage of inhibition was calculated according to the following equation:
% Inhibition=[1−(RFU in test reaction−RFU in blank)/(RFU in control reaction−RFU in blank)]×100.
Each inhibitor was titrated over an appropriate range of concentrations, and inhibition constants were determined using the following equations:
v=Vm[S]/(Km(1+[I]/Ki)+[S])
Certain compounds of the present invention were also tested to determine their ability to inhibit HIV RT-catalyzed DNA polymerization on a heteropolymeric primed-RNA template in the presence of all four natural deoxynucleotide triphosphate (dNTP) substrates. This assay is a modification of a published procedure (Parker et al., “Mechanism of Inhibition of Human Immunodeficiency Virus Type 1 Reverse Transcriptase and Human DNA Polymerases α, β, and γ by the 5′-Triphosphates of Carbovir,3′-Azido-3′-deoxythymidine,2′-3′-Dideoxyguanosine, and 3′-Deoxythymidine”, J. Biol. Chem. 1991, 266 (3), 1754-62).
HIV RT DNA polymerase activity was measured in a reaction buffer containing primed-ribosomal RNA template and dNTPs diluted to appropriate concentrations in assay buffer and pipetted into 1.5 mL microcentrifuge tubes. Nucleotide mimics of the present invention were diluted in buffer and tested at various concentrations up to 5 μM final concentration. The reaction was initiated by addition of enzyme and allowed to proceed at 42° C. for 60 to 90 minutes. The reaction was quenched by addition of 12 μL 0.2 M EDTA, pH 8.0.
50 μL each of reaction was transferred to the well of a 96-well plate (in duplicate). 200 μL of diluted PicoGreen dsDNA Quantitation Reagent was added to each well of a 96-well plate and incubated at room temperature for 5 minutes. Plate wells were read on a microplate fluorometer. The wells were excited at 480 nm and the fluorescence emission intensity (RFU) was measured at 520 nm. The percentage of inhibition and inhibition constants […] were determined for representative compounds as described above.

A short description of data set [2]: Stability assessment using cell extracts. Conditions: 50% CEM cell extract. How it is done:
The stability of compounds in cell extracts was examined as follows:
Cell lysis buffer was added to cell pellets and the cells frozen and thawed 3× using dry ice. The lysis buffer (LB) was composed of the following: 50 mM Tris-HCl, pH 7.4 (100 μl/ml 10× stock), 20% glycerol (200 μl/ml), and 0.5% Triton X-100 (5 μl/ml). 100 μl of LB was added to each microfuge tube containing 10^7 frozen CEM cells. After the cells were lysed the extracts were centrifuged at high speed in a microcentrifuge for 5 minutes and the clarified cell extract transferred to a new tube. The cell stability reaction mixtures contained concentrations of buffer, magnesium, nucleotide, and cell extract as shown below:
The reaction mixtures were incubated at 37° C. At each time point, including at time zero, 12.5 μl aliquots were added to 40 μl ice-cold methanol. […] The samples were incubated in methanol for at least 60 minutes and typically overnight at −20° C. prior to further processing. The cell extracts were centrifuged at high speed in refrigerated microcentrifuge for 20 minutes and the supernatant transferred to a new tube. The extract was then dried under vacuum in a LabConco Centrivap Concentrator. The samples were then resuspended in 40 or 50 μl dH2O, filtered to remove any particulate, and analyzed by reverse phase HPLC.
The reverse phase HPLC columns used for the analysis were either a Phenomenex C18 Aqua column (2×100 mm) or the Phenomenex C18 Aqua column (3×150 mm) used with the appropriate guard column. The HPLC flow rate was either 0.2 ml/min (for the 2×100 mm column) or 0.5 ml/min (for the 3×150 mm column) with the following buffer system: 5 mM tetrabutylammonium acetate, 50 mM ammonium phosphate, and an acetonitrile gradient running from 5% up to as high as 60%. The amount of remaining parent compound at each time point was used to determine the half-life of the compound. […] Unmodified nucleoside triphosphates were used as positive controls.

Another data set concerns Escherichia coli. Briefly: Antimicrobial assay, minimal inhibitory concentration. It is filed as cell-based. To be noted: for MIC: Escherichia coli, read-out: E. coli MIC. How it is done: To examine the antimicrobial potential of the nucleotide mimics of the present invention an assay was employed that allowed the screening of a large number of compounds simultaneously. The type of bacteria chosen to screen the compounds are organisms associated with human disease and represent major groups of bacteria based on their structure and metabolism. Bacterial cultures of Escherichia coli and Staphylococcus aureus were incubated overnight at 37° C. in a shaker incubator. A lawn of each overnight bacterial culture was made by plating […] of bacteria on agar plates containing Nutrient Broth. Immediately after plating, sterile blank paper discs were put on top of the lawn and a compound was applied to each blank paper disc. Plates were then incubated overnight and examined for the inhibition of bacterial growth the following day. […] The plates were incubated overnight at 37° C. and then examined spectrophotometrically at 600 nm to determine the minimum concentration of each compound that inhibited replication of bacteria as determined by no increase in absorbance at 600 nm.

[3] abbreviates: overnight at 37° C., tested 0-200 μg/ml, NA = Not active.
Where [4] appears, read: value in brackets beside the μg/ml value.

Read-outs that look alike come from different tables or passages of the source.

`BP(=O)(OCC1OC(n2cc(C)c(=O)[nH]c2=O)CC1N=[N+]=[N-])OP(=O)(O)C(F)(F)P(=O)(O)O` (single isomer, unassigned; isomer 3) [Compound 27-Isomer, 3′-Azido-3′-deoxythymidine 5′-α-P-borano-β,γ-(difluoromethylene)triphosphate]: the “Half-Life, Serum Half-Lives of AZT Triphosphate Mimic Prodrugs” value in “in vitro” (bovine, serum) was over 48 h.

The term Ki denotes the equilibrium dissociation constant of an inhibitor or competing ligand from its target. In the case of `BP(=O)(OC[C@H]1O[C@@H](n2cc(C)c(=O)[nH]c2=O)C[C@@H]1N=[N+]=[N-])OP(=O)(O)C(F)P(=O)(O)O` (stereo partly drawn) [Compound 25, 3′-Azido-3′-deoxythymidine 5′-α-P-borano-β,γ-(fluoromethylene)triphosphate], the Ki in data set [1] was found to be 27 nM.

What is called half-life is the time in which the quantity being followed falls by half. Consider `Nc1ncnc2c1ncn2[C@@H]1O[C@H](COP(=O)(O)OP(=O)(O)OP(=O)(O)O)[C@@H](O)[C@H]1O` [Adenosine Triphosphate, reference compound], for which, in “in vitro” (Table 6, 50% fetal calf serum, 37° C., 500 μM, time points through 48 hours), the “Half-Life, Serum Half-Lives of NTPs and AZT Triphosphate Mimics” value was determined as 2 h. The half-life at 500 μM in “in vitro” (bovine, 50% fetal calf serum, Serum Half-Lives of AZT Triphosphate Mimic Prodrugs, Table 7, 37° C., 500 μM, time points through 48 hours) was 1.5 h; in “in vitro” (bovine, 50% fetal calf serum, Serum Half-Lives of Gemcitibine Diphosphate Mimics and Their Prodrugs, Table 8, 37° C., 500 μM, time points through 48 hours) it was 2.5 h; in data set [2] (human, pH 7.4) it was 0.25 h. Moreover, the “Half-Life, Cell Extract Half-Lives of AZT 5'-α-P-borano-β,γ-(difluoromethylene) triphosphate Prodrugs” value in data set [2] (Table 10, 37° C., 500 μM, time points through 48 hours) was “.25 h”. Also, in data set [2] (Table 11, 37° C., 500 μM, time points through 48 hours), the “Half-Life, Cell Extract Half-Lives of Gemcitibine 5'-Methylendiphosphonate and its Prodrugs” value is “.25 h”.

Regarding `[BH3-][P+](O)(OCC1OC(n2cc(C)c(=O)[nH]c2=O)CC1N=[N+]=[N-])OP(=O)(O)C(F)(F)P(=O)(O)O` (single isomer, unassigned) [Compound 27-isomer 2, 3′-Azido-3′-deoxythymidine 5′-α-P-borano-β,γ-(difluoromethylene)triphosphate], the “E. coli MIC” value in the data set with Escherichia coli (setting [3]) was 50 µg/mL; in the data set on Escherichia coli (setting [4]), “(93) uM”. Further, in data set [1], the Ki is 61 nM.

By MIC is commonly meant the lowest concentration found to suppress growth. As to `Cc1cn([C@H]2C[C@@H](N=[N+]=[N-])[C@@H](COP(=O)(O)NP(=O)(OCCSC(=O)C(C)(C)C)OCCSC(=O)C(C)(C)C)O2)c(=O)[nH]c1=O` [Compound 71, 3′-Azido-3′-deoxythymidine 5′-β,β-O-di(S-pivaloyl-2-thioethyl)imidodiphosphate], the MIC in the data set with Escherichia coli (setting [3]) came to 20 µg/mL; with Escherichia coli (setting [4]), 28 µM.

Take `BP(=O)(OC[C@@H]1O[C@H](n2cc(C)c(=O)[nH]c2=O)C[C@H]1N=[N+]=[N-])OP(=O)(O)OP(=O)(O)O` (stereo partly drawn) [AZT 5′-α-P-boranotriphosphate, reference compound]: the “Half-Life, Serum Half-Lives of NTPs and AZT Triphosphate Mimics” value in the data set “in vitro” (bovine, serum) stood at 6 h.

As for `Cc1cn([C@H]2C[C@H](O)[C@@H](COP(=O)(O)OP(=O)(O)OP(=O)(O)O)O2)c(=O)[nH]c1=O` [Thymidine Triphosphate, reference compound], the “Half-Life, Serum Half-Lives of NTPs and AZT Triphosphate Mimics” value in “in vitro” (bovine, serum, 500 μM) amounted to 2 h.

Regarding `Cc1cn([C@H]2C[C@H](N=[N+]=[N-])[C@@H](COP(=O)(O)OP(=O)(O)OP(=O)(O)O)O2)c(=O)[nH]c1=O` [AZT Triphosphate, 3′-azido-3′-deoxythymidine (AZT, an anti-HIV drug) triphosphate, reference compound], the “Half-Life, Serum Half-Lives of NTPs and AZT Triphosphate Mimics” value in “in vitro” (bovine, serum) is 2 h.

Consider `Cc1cn([C@H]2C[C@H](N=[N+]=[N-])[C@@H](COP(=O)(O)NP(=O)(O)O)O2)c(=O)[nH]c1=O` [Compound 8, 3′-azido-3′-deoxythymidine 5′-imidodiphosphate], for which, in data set [1], the Ki stood at 4400 nM.

In the case of “3′-Azido-3′-deoxythymidine 5′-α-P-borano-β,γ-imidotriphosphate [Compound 23]”, the “E. coli MIC” value was 50 to 100 µg/mL in the data set on Escherichia coli (setting [3]) and “(99-198) uM” with Escherichia coli (setting [4]). In “in vitro” (bovine, serum), the “Half-Life, Serum Half-Lives of NTPs and AZT Triphosphate Mimics” value was 36 h. Also, the Ki in data set [1] turned out to be 105 nM.

Turning to `Cc1cn([C@H]2C[C@H](N=[N+]=[N-])[C@@H](CO)O2)c(=O)[nH]c1=O` [AZT, 3′-azido-3′-deoxythymidine, reference compound], the MIC is 2 µg/mL in the data set on Escherichia coli (setting [3]) and 7.5 µM in the data set on Escherichia coli (setting [4]).

Regarding `Cc1cn(C2CC(N=[N+]=[N-])C(COP(O)(=S)OP(=O)(O)C(F)(F)P(=O)(O)O)O2)c(=O)[nH]c1=O` (stereo not drawn) [Compound 29, 3′-Azido-3′-deoxythymidine 5′-α-P-thio-β,γ-(difluoromethylene)triphosphate], the Ki in data set [1] stood at 90 nM.
